# Laboratory results published in US20120165403A1, “METHODS OF INHIBITING THE ACTIVITY OF HSP90 AND/OR ARYL HYDROCARBON RECEPTOR” (UNIVERSITY OF ROCHESTER, priority 2004, published 2012).
# Tests used:
# [1] = target: chicken hsp90 (Gallus gallus, UniProt P11501); experiment: Trypsin treatment of in vitro translated hsp90; format: biochemical; design: made in house; host or cells: TNT rabbit reticulocyte lysate, 35S-labelled; settings: in absence of AhR or ARNT, trypsin 10 minutes at room temperature
# Procedure: Chicken hsp90 was translated in vitro using the TNT RRL system as described supra in the presence of [^35S]Methionine, diluted, incubated with DMSO or EGCG, and treated with trypsin at indicated concentrations for 10 minutes at room temperature. All samples were separated by 10% SDS-PAGE, transferred to PVDF membrane, and visualized by phosphorImager. Results of the experiment are illustrated in FIG. 13. […] Therefore, the ability of EGCG to affect hsp90 conformation is not dependent on the presence of AhR or ARNT.
# [2] = target: T1, AhR/Arnt complex (Mus musculus, UniProt P30561); experiment: AhR/Arnt complex formation by immunoprecipitation in RRL; format: biochemical, murine; settings: 200 μm EGCG, with or without 1 nM TCDD, anti-AhR immunoprecipitation
# T1 construct: made in house; host or cells: TNT rabbit reticulocyte lysate
# T1 sequence (P30561 10-805 limits assumed): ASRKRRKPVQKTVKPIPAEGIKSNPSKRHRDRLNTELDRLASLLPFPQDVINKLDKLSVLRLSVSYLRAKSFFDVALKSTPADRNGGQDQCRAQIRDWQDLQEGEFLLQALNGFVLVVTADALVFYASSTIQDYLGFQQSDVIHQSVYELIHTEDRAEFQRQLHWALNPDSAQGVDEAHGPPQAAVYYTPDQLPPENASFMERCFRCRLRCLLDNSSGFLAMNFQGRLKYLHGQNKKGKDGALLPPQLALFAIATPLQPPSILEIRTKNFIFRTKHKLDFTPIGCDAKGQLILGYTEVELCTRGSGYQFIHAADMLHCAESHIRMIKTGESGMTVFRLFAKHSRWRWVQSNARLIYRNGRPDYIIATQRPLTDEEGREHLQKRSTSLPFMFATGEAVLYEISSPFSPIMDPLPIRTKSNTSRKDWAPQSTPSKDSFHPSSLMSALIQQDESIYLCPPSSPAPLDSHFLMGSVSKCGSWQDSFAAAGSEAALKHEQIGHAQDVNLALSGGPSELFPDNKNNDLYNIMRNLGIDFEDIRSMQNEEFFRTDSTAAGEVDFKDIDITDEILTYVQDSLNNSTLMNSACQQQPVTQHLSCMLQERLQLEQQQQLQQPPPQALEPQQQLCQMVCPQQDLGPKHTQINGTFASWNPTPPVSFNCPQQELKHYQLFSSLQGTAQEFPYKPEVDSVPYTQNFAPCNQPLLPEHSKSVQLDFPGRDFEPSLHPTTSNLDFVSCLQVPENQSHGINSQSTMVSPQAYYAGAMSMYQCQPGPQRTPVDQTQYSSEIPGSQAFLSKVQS
# Excerpt: Murine AhR and ARNT cDNA (obtained from J. Whitlock and O. Hankinson, respectively) were inserted into pcDNA3 (Invitrogen, Carlsbad, Calif.). Chicken hsp90 constructs (FIG. 5), c90711hsp (wild-type), c90G94D (wild-type point mutant gly94→Asp (Grenert et al., J. Biol. Chem. 272:23843-23850 (1997), which is hereby incorporated by reference in its entirety), c90D92A (wild-type point mutant Asp92→Ala (Sullivan et al., J. Biol. Chem. 268:20373-20379 (1993), which is hereby incorporated by reference in its entirety), c90N221 (wild-type truncation mutant encoding a.a. 221-728 (Sullivan et al., J. Biol. Chem. 268:20373-20379 (1993), which is hereby incorporated by reference in its entirety)), c90N303 (a.a. 303-728) and c90N538 (a.a. 538-728) were kind gifts from Dr. D. Toft (Rochester, Minn.). The C-terminal truncation mutant c900507 (a.a. 1-221) was obtained from Dr. L. Neckers (Rockville, Md.) (Grenert et al., J. Biol. Chem. 272:23843-23850 (1997); Marcu et al., J. Biol. Chem. 275:37181-37186 (2000), which are hereby incorporated by reference in their entirety). Human p23 cDNA was excised from pQE80-p23 (obtained from W. Chan Stockton, Calif.) by sequential digests using the restriction enzymes Sad (3′-end) and BamHI (5′-end) and inserted into the similarly digested pET28a (Novagen, Madison, Wis.). […]
compound,measurement,setting,value
"O=C(O[C@@H]1Cc2c(O)cc(O)cc2O[C@@H]1c1cc(O)c(O)c(O)c1)c1cc(O)c(O)c(O)c1 [EGCG, epigallocatechin gallate]",effect on hsp90 conformation (trypsin treatment),[1],altered conformation of hsp90
same,effect on AhR/Arnt complex formation,[2],disrupting AhR/Arnt complex formation
